Data on 1 molecule can be found in US9403842B2, “Prasugrel in non-crystalline form and pharmaceutical composition thereof” (ratiopharm GmbH, priority 2009, dated 2016).

This data set in a line: pH-dependent degradation. The conditions noted are these: pH values of <3, after just 2 hours. The data set is classed as physicochemical. Here is the method:
At pH values of <3, degradation of more than 1% is observed after just 2 hours. This restricts the possible excipients used in the production of pharmaceutical formulations.

`CC(=O)Oc1cc2c(s1)CCN(C(C(=O)C1CC1)c1ccccc1F)C2` (stereo not drawn) [prasugrel, 2-acetoxy-5-(α-cyclopropylcarbonyl-2-fluorobenzyl)-4,5,6,7-tetrahydrothieno[3,2-c]pyridine]: the degradation result is listed as “more than 1%”.
